Assay results: patent US20060142291A1, “Use of formaldehyde and formaldehyde-releasing compounds in a composition for controlling mycobacteria” (priority 2004, published 2006)

Legend:
Experiment in all cases: Activity of bactericidal solutions against mycobacteria (MIC, 7H9 liquid medium, turbidity and streaking on 7H10 agar)
Type in all cases: cell-based
[1] = tested on: M. immunogenum ATCC 700505; conditions: 3 weeks incubation, % by weight; for Activity at MIC (%) M. immunogenum (28° C.): ATCC 700505, 28° C.; for Activity at MIC (%) M. immunogenum (37° C.): ATCC 700505, 37° C.
M. chelonae ATCC 35725 = conditions: for Activity at MIC (%) M. chelonae (28° C.): ATCC 35725, 28° C., 3 weeks incubation, % by weight
M. chelonae ATCC 19236 = conditions: ATCC 19236, 37° C., 3 weeks incubation, % by weight
M. terrae ATCC 15755 = conditions: ATCC 15755, 37° C., 3 weeks incubation, % by weight

Row | Compound | Activity at MIC (%) M. immunogenum (28° C.) [1] | Activity at MIC (%) M. immunogenum (37° C.) [1] | Activity at MIC (%) M. chelonae (28° C.) (M. chelonae ATCC 35725) | usage concentration active against M. chelonae (M. chelonae ATCC 35725; strain and temperature not stated) | Activity at MIC (%) M. chelonae (37° C.) (M. chelonae ATCC 19236) | Activity at MIC (%) M. terrae (37° C.) (M. terrae ATCC 15755)
1 | OCCN1CN(CCO)CN(CCO)C1 [Comparison 1, 2,2′,2″-(hexahydro-1,3,5-triazine-1,3,5-triyl)triethanol] | ≦0.075% | ≦0.075% | 0.3% | 0.3 % by weight | 0.3% | 0.3%
2 | CCCCCCCCn1sccc1=O [Comparison 2, 2-octyl-3(2H)-isothiazol-3-one] | >0.3% | >0.3% | >0.3% |  | >0.3% | >0.3%
